“And” between values parts separate entries of the source, which are not always exact repeats. Equal values may be shown once.
Biological target: Nonstructural protein 3 (Zika virus, UniProt A0A024AXB9)
Assay: Functional biochemical assay to identify treatments for viral infectious disease that targets Zika NS2B-NS3 protease. Utilizing a direct enzyme activity measurement method, reading the fluorescence intensity is used to characterize the relative potency of inhibitors as IC50.
Set-up: species or system PRVABC59

Sequence of Nonstructural protein 3 (A0A024AXB9 whole entry): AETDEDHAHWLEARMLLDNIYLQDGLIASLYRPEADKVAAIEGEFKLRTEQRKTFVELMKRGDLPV

Row | Structure (SMILES) | IC50
1 | O=C1Cc2c(cc(F)cc2C(=O)Nc2ccc3c(c2)CNC3)N1 | 0.026 µM and 0.014 µM
2 | Cc1c(C(=O)Nc2cc(C(=O)N[C@H]3CCNC3=O)ccn2)cc(C2CC2)n1C | > 25 µM
3 | NCc1cccc(NC(=O)[C@H](NC(=O)OCc2ccccc2)C2CCC(c3ccccc3)CC2)c1 (stereo partly specified) | 7.6 µM and 7.31 µM
4 | CCS(=O)(=O)N[C@@H](C(=O)Nc1cccc(CN)c1)c1ccc(OCc2ccccc2)cc1 | > 99.5 µM
5 | O=C(O)c1cc(Cl)ccc1NS(=O)(=O)c1ccc(N[C@H]2CCCOC2)nc1 | > 99.5 µM
6 | N#Cc1ccc(CN)cc1NC(=O)c1cc(Cl)cc(NC(=O)OCc2ccccc2)c1 | 18.7 µM
7 | NCc1cccc(NC(=O)C[C@@H](NC(=O)OCc2ccccc2)c2ccc(Cl)c(Br)c2)c1 | 14.4 µM and 12.8 µM
8 | O=c1c2ccccc2ncn1CCCn1cnc2ccccc2c1=O | > 99.5 µM
9 | NCc1cccc(NC(=O)c2cc(Cl)cc3[nH]ncc23)c1 | 0.886 µM
10 | Cc1c(C(=O)Nc2cc(CCCN)ccn2)cnn1C1CC1 | > 25 µM
11 | CCc1cnccc1-c1nc2c(C(=O)Nc3ccc4c(c3)CNC4)cc(Cl)cc2[nH]1 | 0.364 µM
12 | CCn1c(=O)c(N2CC[C@@H](CO)C2)nc2ccccc21 | > 99.5 µM
13 | NCc1cc(C(=O)N2CCOCC2)cc([C@@H]2C[C@H]2c2cc(Cl)cc(NC(=O)OCc3ccccc3)c2)c1 | 13.8 µM
14 | CCc1cc(C(=O)Nc2cccc(CN)c2)sc1C | > 99.5 µM
15 | NCc1cccc(NC(=O)c2ccnc3[nH]c(C4CCOCC4)nc23)c1 | > 99.5 µM
16 | CC1(C)CN(C(=O)Nc2ccc3c(c2)CNC3)CC(F)(F)C1 | > 25 µM
17 | CS(=O)(=O)c1ccc(CN)cc1NC(=O)c1cc(Cl)cc(NC(=O)OCc2ccccc2)c1 | 19.8 µM
18 | NCC1CCN(C(=O)c2cc(Cl)cc(NC(=O)OCc3ccccc3)c2)CC1 | 97.3 µM
19 | c1cnc2c(C3CCN(Cc4c[nH]c5ncccc45)CC3)c[nH]c2c1 | > 99.5 µM
20 | NCc1cccc(CNC(=O)c2cc(Cl)cc(NC(=O)OCc3ccccc3)c2)c1 | 51.3 µM
21 | C=Cc1cc2c(cc1NC(=O)c1cc(F)cc3[nH]ncc13)CNC2 | 0.045 µM and 0.028 µM
22 | CO[C@H]1C[C@H](n2cc3c(C(=O)Nc4ccc5c(c4)CNC5)cc(Cl)cc3n2)C1 | 0.219 µM
23 | CNC(=O)[C@H](Nc1cc(Cl)cc(NC(=O)OCc2ccccc2)c1)c1cccc(CN)c1 | 6.31 µM
24 | O=C(Nc1cc2c(c(-c3c[nH]c(=O)c(F)c3)c1)CNC2)c1cc(F)cc2[nH]ncc12 | 0.025 µM and 0.015 µM
25 | O=C(Nc1cccc(-n2nn[nH]c2=O)c1)c1cc(Cl)cc(C2CC2)c1 | > 99.5 µM
26 | O=C(Nc1ccc2c(c1)CN[C@H]2[C@H](O)CO)c1cc(F)cc2[nH]ncc12 | 0.241 µM

Row | Structure (SMILES) | IC50
27 | O=C(O)C[C@H]1CCCN1C(=O)c1cc(Cl)cc(NC(=O)OCc2ccccc2)c1 | > 99.5 µM
28 | O=C(Cn1ccnc(N2CC[C@H](CO)C2)c1=O)NCc1ccsc1 | > 99.5 µM
29 | Fc1ncccc1OCc1cc(Cl)nc(N2CCNCC2)n1 | > 99.5 µM
30 | NCc1cccc(NC(=O)[C@@H]2C[C@H](NC(=O)OCc3ccccc3)[C@H]3C[C@H]32)c1 | > 99.5 µM
31 | COc1ccc(N2CCC(NS(=O)(=O)c3ccc(Cl)cc3C(=O)O)CC2)cc1 | > 99.5 µM
32 | O=Cc1ccc(CC(=O)N2C[C@@H](O)[C@H](N3CCOCC3)C2)cc1 | > 99.5 µM
33 | O=C(N[C@H]1[C@H]2CCCCC[C@H]2[C@H]1C(=O)Nc1cccc(-n2nn[nH]c2=O)c1)OCc1ccccc1 | 63 µM
34 | C=CCNC(=O)C1(NC(=O)c2cccc3c2CC(=O)N3)CCCCC1 | > 25 µM
35 | NCc1cc(NC(=O)c2cc(Cl)cc(NC(=O)OCc3ccccc3)c2)cc(C2=CC[C@H](C(=O)O)CC2)c1 | 14.6 µM
36 | CSc1cc2c(cc1NC(=O)c1cc(F)cc3[nH]ncc13)CNC2 | 0.047 µM and 0.032 µM
37 | c1cnc(C2CCN(Cc3c[nH]c4ccccc34)CC2)nc1 | 50.6 µM
38 | O=C(CSc1cccc(Br)c1)Nc1ccc2c(c1)CNC2 | > 99.5 µM
39 | Clc1ccc2[nH]cc(Cc3cccc(-c4nn[nH]n4)c3)c2c1 | > 99.5 µM
40 | NCc1cccc(NC(=O)c2cc(C3CC3)nc3ccc(Cl)cc23)c1 | > 99.5 µM
41 | C[C@H]1C[C@H](c2cccc(CN)c2)[C@@H](c2cc(Cl)cc(NC(=O)OCc3ccccc3)c2)C1 | 15 µM
42 | O=C(NCC1CC1)c1cc(Cl)ccc1NS(=O)(=O)c1ccc(Oc2ccccc2Cl)cc1 | 76.3 µM
43 | CC[C@H](Cc1nnn[nH]1)c1ccc(NC(=O)[C@H]2[C@H]3CCCCC[C@H]3[C@H]2NC(=O)OCc2ccccc2)cc1 | 52.4 µM
44 | NCc1cccc(NC(=O)c2cc(Cl)ccc2OCC(F)(F)F)c1 | 55.5 µM
45 | CCCCCC(=O)N[C@H](C(=O)NCc1ccc(NC(=N)N)cc1)c1ccc(OCc2ccccc2)cc1 | > 99.5 µM
46 | C(#C[C@H](Nc1ccc2c(c1)CNC2)c1cccc2[nH]ncc12)c1ccccc1 | > 25 µM
47 | O=C(Nc1cc(-c2cccnc2)ccn1)c1nc(C2CC2)co1 | > 25 µM
48 | NCc1cccc(/C=C/c2cc(Cl)cc(NC(=O)OCc3ccccc3)c2)c1 | 22.3 µM
49 | O=C(O)c1cc(Cl)ccc1S(=O)(=O)Nc1ccc(F)c(NC(=O)C2CC2)c1 | > 99.5 µM
50 | CCOC(=O)c1ncoc1CNC(=O)[C@H](Nc1ccc2c(c1)CNC2)c1cc(Cl)cc(C2CC2)c1 | 0.297 µM
51 | NCc1csc2cc(C(=O)Nc3cc([C@H]4CCOC4)ccn3)ccc12 | > 25 µM

— ChEMBL document CHEMBL5604062, “ASAP - ZIKV NS2B-NS3 protease fluorescence dose response” (2024)
